From patent publication US12673918B2, “Small molecule RPN13 inhibitors with antitumor properties” (The Johns Hopkins University, priority 2019, dated 2026)
Like-named read-outs stand apart in the source and are kept apart here.

What was measured:
HeLa = assay: MTT cytotoxicity assay, HeLa; settings: read-out: cytotoxicity IC50 HeLa, Tables 3A/4B/4C
SKOV3 = assay: MTT cytotoxicity assay, SKOV3; settings: read-out: cytotoxicity IC50 SKOV3; Tables 3A/4B/4C; MTT assay
Description: Cell lines and cytotoxicity assays: All cell lines were obtained from the American Type Culture Collection (ATCC) and cultured in the specified medium supplemented with 10% fetal bovine serum, 100 IU/mL penicillin, and 100 μg/mL streptomycin at 37° C. in a humidified 5% CO2/95% air incubator. […] To assess drug cytotoxicity, cells were seeded at 2,500 cells/well (10,000 cells/well for MM lines) in 100 μL medium in 96-well plate and after 24 treated with compounds for 72 h, incubated according to the manufacturer's protocol with the Thiazolyl Blue Tetrazolium Bromide (Sigma, M2128) and A570 measured using a Benchmark Plus microplate spectrophotometer (BIO-RAD). IC50 data was analyzed by Graphpad Prism software.

BR5-FvB1 = assay: MTT cytotoxicity assay, BR5-FvB1; settings: Mus musculus, read-out: cytotoxicity IC50 BR5-FvB1
Description: Cell lines and cytotoxicity assays: All cell lines were obtained from the American Type Culture Collection (ATCC) and cultured in the specified medium supplemented with 10% fetal bovine serum, 100 IU/mL penicillin, and 100 μg/mL streptomycin at 37° C. in a humidified 5% CO2/95% air incubator. […] To assess drug cytotoxicity, cells were seeded at 2,500 cells/well (10,000 cells/well for MM lines) in 100 μL medium in 96-well plate and after 24 treated with compounds for 72 h, incubated according to the manufacturer's protocol with the Thiazolyl Blue Tetrazolium Bromide (Sigma, M2128) and A570 measured using a Benchmark Plus microplate spectrophotometer (BIO-RAD). IC50 data was analyzed by Graphpad Prism software. In the chirality studies the cells were treated with compounds for 48 h, and the cells were incubated and measured via the preceeding protocols.

BR5-Luc = assay: MTT cytotoxicity assay, BR5-Luc; settings: read-out: cytotoxicity IC50 BR5-Luc, Tables 3A/4B/4C, BRCA2 − VE
[1] = test system: high molecular weight polyubiquitinated proteins; assay: Western blot of polyubiquitinated proteins, ES2 cells; type: cell-based, human; settings: 1 μM, 4 hr
Description: FIG. 1C illustrates ES2 cells treated with compounds (1 μM, 4 hr), lysed and the samples probed with ubiquitin or actin-specific antibody by Western blot analysis.
Antibodies, reagents, and Western Blot Analyses: Cell lysate (10-20 μg total protein) prepared in MPER (Pierce) from each sample was subjected to SDS-PAGE, transferred to PVDF membranes and analyzed by Western blot using antibodies specific Bax (#2772, Cell Signaling), ubiquitin (P4D1, sc-8017, Santa Cruz), PARP (#9542, BD Pharmingen), actin (#66009, Protein Tech Group), Tubulin(#66031, Protein Tech Group), ADRM1/Rpn13 (D9Z1U, #12019, Cell Signaling), Lys48-linkled ubiquitin (Apu 2, 05-1307, (Millipore), Annexin V (#559763, BD pharmingen), caspase-3 (51-68655X, BD Pharmingen) at the dilutions recommended by the manufacturers, and for secondary antibodies either peroxidase-linked anti-mouse IgG or anti-rabbit IgG (GE Healthcare UK Ltd) were utilized, HRP conjugated streptavidin (N100, Thermo Fisher) at the recommended dilution (1:5000). MitoTracker Red CMXRos reagent was purchased from ThermoFisher #M7512. The blots were developed using HyGLO chemiluminescent detection reagent (Denville).

HeLa cells = assay: XTT cytotoxicity assay, HeLa; type: cell-based, human; settings: for fold decreased potency compared to RA190: cytotoxicity, Table 1 cell lines (HeLa, SKOV3)
From the text: (§1) The impact of substituents of the aromatic ring on the potency of molecules was also examined. The presence of either an electron withdrawing group (EWG) or an electron donating group (EDG) influences the reactivity of a Michael acceptor towards the target protein but can also impact specificity/selectivity.

RPN13 = RPN13 (Homo sapiens, UniProt Q16186); assay: Competition with RA190B labeling of 42 kDa cellular target in cell lysate; type: binding; set-up: endogenous in cells; running text says HeLa) and OV2008 cell lysates; settings: cell lysate pre-incubated with compounds (20 μM), then RA190B; HRP-streptavidin blot
Sequence of RPN13 (Q16186 whole entry): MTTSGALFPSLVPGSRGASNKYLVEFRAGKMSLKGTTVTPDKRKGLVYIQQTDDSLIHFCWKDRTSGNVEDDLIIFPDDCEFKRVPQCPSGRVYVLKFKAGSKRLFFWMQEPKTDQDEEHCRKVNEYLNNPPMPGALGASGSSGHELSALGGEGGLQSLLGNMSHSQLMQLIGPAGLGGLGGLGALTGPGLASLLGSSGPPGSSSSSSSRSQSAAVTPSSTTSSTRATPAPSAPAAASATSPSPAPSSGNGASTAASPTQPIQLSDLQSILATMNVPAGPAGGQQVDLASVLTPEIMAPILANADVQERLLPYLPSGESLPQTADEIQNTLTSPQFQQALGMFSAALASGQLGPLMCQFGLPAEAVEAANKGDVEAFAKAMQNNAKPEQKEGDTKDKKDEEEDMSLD
Description: (§2) FIG. 1B illustrates precleared ES2 cell lysate incubated with compounds (20 μM) or vehicle (DMSO, 1:100) for 45 min and then with RA190B (5 μM) for 45 min at 4° C. by Western blot analysis. Samples were subjected to SDS-PAGE, transfer to PVDF membrane, and after probing with HRP-streptavidin, binding was detected using chemiluminescence.
as §2, with “2B” for “1B”, “OV2008” for “ES2”, “(10” for “(5”, “binding of” for “after probing with”, “HRP-streptavidin,” for “HRP-streptavidin, binding was”
Biotinylated RA190 (RA190B, FIG. 1A) is utilized as a probe to detect covalent binding to its cellular target(s) in detergent lysates of cancer cell lines (10). […] Here, the ability of compounds (FIG. 1A) to compete with RA190B binding to its 42 kDa cellular target (FIG. 1B) were examined. Compounds, including bortezomib as a negative control, were incubated with HeLa cell lysate and then RA190B added.
Biotin labeling Assay: Clarified cell lysate in MPER buffer was pretreated with streptavidin magna beads for 45 min at 4° C. to deplete non-specific biotinylated proteins in the cell lysate. The beads were separated and 40 μL of the pre-cleared cell lysate was incubated with compounds (20 μM) for 45 min at 4° C., and then treated with RA183B, RA190B, or RA413SB (10 μM) for 45 min at 4° C. Next, the samples were mixed with Laemmli sample buffer (BioRad) and boiled for 5 min. […] (24 V). The membrane was blocked with 5% BSA in PBST for 1 hr at RT and washed for 20 minutes (3× with PBST). Then the membrane was probed with HRP-streptavidin (1:10,000 in PBST) for 1 hr at RT, washed for 30 min (3× with PBST), and developed using HyGLO chemiluminescent detection reagent (Denville) for biotin detection.

SKOV3 cells = assay: XTT cytotoxicity assay, SKOV3; type: cell-based, human
From the text: as §1

[2] = Homo sapiens, HeLa, Table 1, XTT assay, read-out: IC50 HeLa
[3] = Table 1, XTT assay, read-out: IC50 SKOV3
[4] = Table 1, XTT assay, read-out: IC50 HeLa
[5] = Table 2, read-out: IC50 SKOV3 (bridge compounds)
[6] = Table 2, read-out: IC50 HeLa (bridge compounds)

CC1NCC(=Cc2ccc([N+](=O)[O-])cc2)C(=O)C1=Cc1ccc([N+](=O)[O-])cc1 (racemic) [RA411]
IC50 (HeLa): 16 nM
IC50 (SKOV3): 257 nM

COc1cccc2c1C(=O)c1c(O)c3c(c(O)c1C2=O)C[C@@](O)(C(=O)CO)C[C@@H]3O[C@H]1C[C@H](N)[C@H](O)[C@H](C)O1 [DOX, Doxorubicin]
IC50 (BR5-FvB1): < 20 nM
IC50 (BR5-Luc): 237 nM

CC1(C)CN(C(=O)[C@@H](N)Cc2ccccc2)C/C(=C\c2ccc(Cl)c(Cl)c2)C1=O [RA190H]
accumulation of high molecular weight polyubiquitinated proteins [1]: only weakly caused an accumulation of high molecular weight polyubiquitinated proteins
IC50 (HeLa cells; [2]): 562 nM
fold decreased potency compared to RA190 (HeLa cells): 6 fold
competition with RA190B binding to 42 kDa cellular target (RPN13): competed labeling by RA190B to a greater extent

O=C(O)CCC(=O)NC(Cc1ccccc1)C(=O)N1CC(=Cc2ccc(Cl)c(Cl)c2)C(=O)C(=Cc2ccc(Cl)c(Cl)c2)C1 (stereo not drawn) [RA190SA]
IC50 (SKOV3 cells; [3]): 253 nM
IC50 (HeLa cells; [4]): 121 nM

COc1cc(C(=O)NC(Cc2ccccc2)C(=O)N2CC(=Cc3ccc(Cl)c(Cl)c3)C(=O)C(=Cc3ccc(Cl)c(Cl)c3)C2)cc(OC)c1OC (stereo not drawn) [RA190TMB]
IC50 (SKOV3 cells; [3]): 112 nM
IC50 (HeLa cells; [4]): 94 nM

CCCC(CCC)C(=O)NC(Cc1ccccc1)C(=O)N1CC(=Cc2ccc(Cl)c(Cl)c2)C(=O)C(=Cc2ccc(Cl)c(Cl)c2)C1 (stereo not drawn) [RA190VA]
IC50 (SKOV3 cells; [3]): 87 nM
IC50 (HeLa cells; [4]): 74 nM

C=Cc1ccc(C(=O)NC(Cc2ccccc2)C(=O)N2CC(=Cc3ccc(Cl)c(Cl)c3)C(=O)C(=Cc3ccc(Cl)c(Cl)c3)C2)cc1 (stereo not drawn) [RA190VBA]
IC50 (SKOV3 cells; [3]): 178 nM
IC50 (HeLa cells; [4]): 94 nM

CC(C)CC(N)C(=O)N1CC(=Cc2ccc(Cl)c(Cl)c2)C(=O)C(=Cc2ccc(Cl)c(Cl)c2)C1 (stereo not drawn) [RA228]
IC50 (SKOV3 cells; [3]): 98 nM
IC50 (HeLa cells; [4]): 66 nM

O=C1C(=Cc2ccc(Cl)c(Cl)c2)CN(C(=O)C(Cc2ccccc2)NC(=O)C(F)(F)F)CC1=Cc1ccc(Cl)c(Cl)c1 (stereo not drawn) [RA230]
IC50 (SKOV3 cells; [3]): 69 nM
IC50 (HeLa cells; [4]): 47 nM

Cc1ccc(S(=O)(=O)NC(Cc2ccccc2)C(=O)N2CC(=Cc3ccc(Cl)c(Cl)c3)C(=O)C(=Cc3ccc(Cl)c(Cl)c3)C2)cc1 (stereo not drawn) [RA231]
IC50 (SKOV3 cells; [3]): 167 nM
IC50 (HeLa cells; [4]): 111 nM

O=C1C(=Cc2ccc(Cl)c(Cl)c2)CN(C(=O)C(Cc2ccccc2)NC(=O)N2CCOCC2)CC1=Cc1ccc(Cl)c(Cl)c1 (stereo not drawn) [RA232]
IC50 (SKOV3 cells; [3]): 77 nM
IC50 (HeLa cells; [4]): 61 nM

O=C1C(=Cc2ccc(Cl)c(Cl)c2)CN(C(=O)C(Cc2ccccc2)NC(=O)c2cccnc2)CC1=Cc1ccc(Cl)c(Cl)c1 (stereo not drawn) [RA233]
IC50 (SKOV3 cells; [3]): 98 nM
IC50 (HeLa cells; [4]): 76 nM

O=C(Nc1ccccc1)NC(Cc1ccccc1)C(=O)N1CC(=Cc2ccc(Cl)c(Cl)c2)C(=O)C(=Cc2ccc(Cl)c(Cl)c2)C1 (stereo not drawn) [RA234]
IC50 (SKOV3 cells; [3]): 235 nM
IC50 (HeLa cells; [4]): 143 nM

NC(Cc1ccc(O)cc1)C(=O)N1CC(=Cc2ccc(Cl)c(Cl)c2)C(=O)C(=Cc2ccc(Cl)c(Cl)c2)C1 (stereo not drawn) [RA295]
IC50 (SKOV3 cells; [3]): 116 nM
IC50 (HeLa cells; [4]): 89 nM

CC(=O)NCCCCC(N)C(=O)NC(Cc1ccccc1)C(=O)N1CC(=Cc2ccc(Cl)c(Cl)c2)C(=O)C(=Cc2ccc(Cl)c(Cl)c2)C1 (stereo not drawn) [RA310Ac]
IC50 (SKOV3 cells; [3]): 284 nM
IC50 (HeLa cells; [4]): 195 nM

Cl.NCCCCC(N)C(=O)NC(Cc1ccccc1)C(=O)N1CC(=Cc2ccc(Cl)c(Cl)c2)C(=O)C(=Cc2ccc(Cl)c(Cl)c2)C1 (stereo not drawn) [RA310]
IC50 (SKOV3 cells; [3]): 446 nM
IC50 (HeLa cells; [4]): 543 nM
fold decreased potency compared to RA190 (HeLa cells): 3 fold

O=C1C(=Cc2ccc(Cl)c(Cl)c2)C2CCC(N2)C1=Cc1ccc(Cl)c(Cl)c1 [RA329]
IC50 (SKOV3 cells; [5]): 471 nM
IC50 (HeLa cells; [6]): 407 nM

O=C1C(=Cc2ccccc2)C2CCC(N2)C1=Cc1ccccc1 [RA330]
IC50 (SKOV3 cells; [5]): 278 nM
IC50 (HeLa cells; [6]): 239 nM

O=C1C(=Cc2ccc([N+](=O)[O-])cc2)C2CCC(N2)C1=Cc1ccc([N+](=O)[O-])cc1 [RA331]
IC50 (SKOV3 cells; [5]): 301 nM
IC50 (HeLa cells; [6]): 236 nM

O=C1C(=Cc2ccc(-c3cccnc3)cc2)C2CCC(N2)C1=Cc1ccc(-c2cccnc2)cc1 [RA332]
IC50 (SKOV3 cells; [5]): 376 nM
IC50 (HeLa cells; [6]): 243 nM

C=CC(=O)N1C2CCC1C(=Cc1ccc([N+](=O)[O-])cc1)C(=O)C2=Cc1ccc([N+](=O)[O-])cc1 [RA333]
IC50 (SKOV3 cells; [5]): 167 nM
IC50 (HeLa cells; [6]): 112 nM

C=CC(=O)N1C2CCC1C(=Cc1ccc(Cl)c(Cl)c1)C(=O)C2=Cc1ccc(Cl)c(Cl)c1 [RA334]
IC50 (SKOV3 cells; [5]): 186 nM
IC50 (HeLa cells; [6]): 101 nM

CC(=O)N1C2CCC1C(=Cc1ccc(Cl)c(Cl)c1)C(=O)C2=Cc1ccc(Cl)c(Cl)c1 [RA335]
IC50 (SKOV3 cells; [5]): 251 nM
IC50 (HeLa cells; [6]): 161 nM

C=CC(=O)N1C2CCC1C(=Cc1ccccc1)C(=O)C2=Cc1ccccc1 [RA336]
IC50 (SKOV3 cells; [5]): 185 nM
IC50 (HeLa cells; [6]): 146 nM

CC(=O)N1C2CCC1C(=Cc1ccccc1)C(=O)C2=Cc1ccccc1 [RA337]
IC50 (SKOV3 cells; [5]): 231 nM
IC50 (HeLa cells; [6]): 186 nM

C=CC(=O)NC(Cc1ccccc1)C(=O)N1C2CCC1C(=Cc1ccc(Cl)c(Cl)c1)C(=O)C2=Cc1ccc(Cl)c(Cl)c1 (stereo not drawn) [RA339]
IC50 (SKOV3 cells; [5]): 54 nM
IC50 (HeLa cells; [6]): 46 nM

C=CC(=O)N1C2CCC1C(=Cc1ccc(-c3cccnc3)cc1)C(=O)C2=Cc1ccc(-c2cccnc2)cc1 [RA340]
IC50 (SKOV3 cells; [5]): 259 nM
IC50 (HeLa cells; [6]): 184 nM

O=C(CCl)N[C@@H](Cc1ccccc1)C(=O)N1C/C(=C\c2ccc(Cl)c(Cl)c2)C(=O)/C(=C/c2ccc(Cl)c(Cl)c2)C1 [RA371]
IC50 (SKOV3 cells; Homo sapiens, SK-OV-3, Table 1, XTT assay, read-out: IC50 SKOV3): 47 nM
IC50 (HeLa cells; [2]): 44 nM

NC(Cc1ccccc1)C(=O)N1CC(=Cc2ccc(Cl)cc2)C(=O)C(=Cc2ccc(Cl)cc2)C1 (stereo not drawn) [RA-4Cl]
IC50 (SKOV3 cells; [3]): 83 nM
IC50 (HeLa cells; [4]): 71 nM

O=C(CCl)NC(Cc1ccccc1)C(=O)N1CC(=Cc2csc(Br)c2)C(=O)C(=Cc2csc(Br)c2)C1 (stereo not drawn) [RA-BTPCA]
IC50 (SKOV3 cells; [3]): 189 nM
IC50 (HeLa cells; [4]): 132 nM

NC(Cc1ccccc1)C(=O)N1CC(=Cc2ccc(Cl)c(C(F)(F)F)c2)C(=O)C(=Cc2ccc(Cl)c(C(F)(F)F)c2)C1 (stereo not drawn) [RA-CTFP]
IC50 (SKOV3 cells; [3]): 81 nM
IC50 (HeLa cells; [4]): 56 nM

O=C1C(=Cc2ccc(Cl)c(C(F)(F)F)c2)CNCC1=Cc1ccc(Cl)c(C(F)(F)F)c1 [RA-CTF]
IC50 (SKOV3 cells; [3]): 457 nM
IC50 (HeLa cells; [4]): 324 nM

O=C1C(=CC=Cc2ccccc2)CNCC1=CC=Cc1ccccc1 [RA-Cinn]
IC50 (SKOV3 cells; [3]): > 5000 nM
IC50 (HeLa cells; [4]): > 5000 nM

COc1cc(C=C2CN(C(=O)C(N)Cc3ccccc3)CC(=Cc3cc(OC)c(OC)c(OC)c3)C2=O)cc(OC)c1OC (stereo not drawn) [RA-TMP]
IC50 (SKOV3 cells; [3]): 125 nM
IC50 (HeLa cells; [4]): 78 nM

NC(Cc1ccccc1)C(=O)N1CC(=Cc2ccc([N+](=O)[O-])cc2)C(=O)C(=Cc2ccc(Cl)c(Cl)c2)C1 (stereo not drawn) [RA-asyP]
IC50 (SKOV3 cells; [3]): 62 nM
IC50 (HeLa cells; [4]): 48 nM

O=C1C(=Cc2ccc([N+](=O)[O-])cc2)CNCC1=Cc1ccc(Cl)c(Cl)c1 [RA-asy]
IC50 (SKOV3 cells; [3]): 398 nM
IC50 (HeLa cells; [4]): 312 nM
